{"source": "ChEMBL document CHEMBL1144094", "about": "“Phenylethanoid glycosides from Globularia trichosantha” (J Nat Prod, 1999)", "tested_on": "Radical scavenging activity", "test": "Antioxidant activity assessed as DPPH free radical scavenging activity by TLC autographic assay", "format": "functional", "note": "Calls of active or inactive are those of the source. The calls are words filed in the database; no cut-off is given here.", "data": [{"compound": "C[C@@H]1O[C@@H](O[C@@H]2[C@@H](O)[C@H](OCCc3ccc(O)c(O)c3)O[C@H](CO[C@@H]3OC[C@@H](O)[C@H](O)[C@H]3O)[C@H]2OC(=O)/C=C/c2ccc(O)c(O)c2)[C@H](O)[C@H](O)[C@H]1O[C@@H]1OC[C@@H](O)[C@H](O)[C@H]1O", "values": [{"measurement": "Activity", "result": "Active"}]}, {"compound": "C[C@@H]1O[C@@H](O[C@@H]2[C@H]3O[C@@H](c4ccc(O)c(O)c4)CO[C@@H]3O[C@H](CO)[C@H]2OC(=O)/C=C/c2ccc(O)c(O)c2)[C@H](O)[C@H](O)[C@H]1O", "values": [{"measurement": "Activity", "result": "Active"}]}, {"compound": "C[C@@H]1O[C@@H](O[C@@H]2[C@@H](O)[C@H](OCCc3ccc(O)c(O)c3)O[C@H](CO)[C@H]2OC(=O)/C=C/c2ccc(O)c(O)c2)[C@H](O)[C@H](O)[C@H]1O", "values": [{"measurement": "Activity", "result": "Active"}]}, {"compound": "C[C@@H]1O[C@@H](O[C@@H]2[C@@H](O)[C@H](OCCc3ccc(O)c(O)c3)O[C@H](CO)[C@H]2OC(=O)/C=C/c2ccc(O)c(O)c2)[C@H](O)[C@H](O)[C@H]1O[C@@H]1OC[C@@H](O)[C@H](O)[C@H]1O", "values": [{"measurement": "Activity", "result": "Active"}]}, {"compound": "C[C@@H]1O[C@@H](O[C@@H]2[C@@H](O)[C@H](OCCc3ccc(O)c(O)c3)O[C@H](CO)[C@H]2OC(=O)/C=C/c2ccc(O)c(O)c2)[C@H](O)[C@H](O)[C@H]1O[C@@H]1O[C@H](CO)[C@@H](O)[C@H](O)[C@H]1O", "values": [{"measurement": "Activity", "result": "Active"}]}]}
